The OligoGym collection
Oligonucleotides are written 5' to 3', each unit as a sugar letter and its base; * is a phosphorothioate linkage, no mark a phosphodiester; rarer units and linkages stand in square brackets, end groups in braces. Plain capitals give the bases only. Oligonucleotides are given in HELM: sugar(base)linkage, 5' to 3'; d 2'-deoxyribose, r ribose, m 2'-O-methylribose, p phosphate. ss, as = sense and antisense strand; d = 2'-deoxy (DNA); r = 2'-OH (RNA)

The substances below were run against SOST (assay: reporter assay of Huesken 2005). Details: siRNA.
Note: test concentration or dose not given here.

Substance	normalised inhibition (eCFP-eYFP dual reporter) [%]
RNA1{r(C)p.r(G)p.r(G)p.r(C)p.r(G)p.r(C)p.r(G)p.r(C)p.r(C)p.r(U)p.r(G)p.r(C)p.r(U)p.r(G)p.r(C)p.r(C)p.r(C)p.r(A)p.r(A)p.d(T)p.d(T)}|RNA2{r(U)p.r(U)p.r(G)p.r(G)p.r(G)p.r(C)p.r(A)p.r(G)p.r(C)p.r(A)p.r(G)p.r(G)p.r(C)p.r(G)p.r(C)p.r(G)p.r(C)p.r(C)p.r(G)p.d(G)p.d(G)}$$$RNA1{StrandType:ss}|RNA2{StrandType:as}$	84.6
RNA1{r(G)p.r(G)p.r(A)p.r(C)p.r(C)p.r(G)p.r(A)p.r(G)p.r(G)p.r(C)p.r(C)p.r(G)p.r(C)p.r(U)p.r(C)p.r(G)p.r(G)p.r(C)p.r(C)p.d(T)p.d(T)}|RNA2{r(G)p.r(G)p.r(C)p.r(C)p.r(G)p.r(A)p.r(G)p.r(C)p.r(G)p.r(G)p.r(C)p.r(C)p.r(U)p.r(C)p.r(G)p.r(G)p.r(U)p.r(C)p.r(C)p.d(C)p.d(G)}$$$RNA1{StrandType:ss}|RNA2{StrandType:as}$	50.7
RNA1{r(C)p.r(G)p.r(C)p.r(G)p.r(C)p.r(G)p.r(C)p.r(G)p.r(C)p.r(G)p.r(C)p.r(A)p.r(A)p.r(G)p.r(G)p.r(U)p.r(G)p.r(C)p.r(G)p.d(T)p.d(T)}|RNA2{r(C)p.r(G)p.r(C)p.r(A)p.r(C)p.r(C)p.r(U)p.r(U)p.r(G)p.r(C)p.r(G)p.r(C)p.r(G)p.r(C)p.r(G)p.r(C)p.r(G)p.r(C)p.r(G)p.d(G)p.d(C)}$$$RNA1{StrandType:ss}|RNA2{StrandType:as}$	60.6
RNA1{r(C)p.r(A)p.r(U)p.r(C)p.r(C)p.r(C)p.r(C)p.r(G)p.r(A)p.r(G)p.r(C)p.r(U)p.r(C)p.r(G)p.r(G)p.r(A)p.r(G)p.r(A)p.r(G)p.d(T)p.d(T)}|RNA2{r(C)p.r(U)p.r(C)p.r(U)p.r(C)p.r(C)p.r(G)p.r(A)p.r(G)p.r(C)p.r(U)p.r(C)p.r(G)p.r(G)p.r(G)p.r(G)p.r(A)p.r(U)p.r(G)p.d(A)p.d(T)}$$$RNA1{StrandType:ss}|RNA2{StrandType:as}$	50.9
RNA1{r(C)p.r(U)p.r(C)p.r(G)p.r(G)p.r(A)p.r(G)p.r(A)p.r(G)p.r(U)p.r(A)p.r(C)p.r(C)p.r(C)p.r(C)p.r(G)p.r(A)p.r(G)p.r(C)p.d(T)p.d(T)}|RNA2{r(G)p.r(C)p.r(U)p.r(C)p.r(G)p.r(G)p.r(G)p.r(G)p.r(U)p.r(A)p.r(C)p.r(U)p.r(C)p.r(U)p.r(C)p.r(C)p.r(G)p.r(A)p.r(G)p.d(C)p.d(T)}$$$RNA1{StrandType:ss}|RNA2{StrandType:as}$	44.4
RNA1{r(G)p.r(U)p.r(G)p.r(G)p.r(U)p.r(G)p.r(A)p.r(G)p.r(G)p.r(C)p.r(G)p.r(C)p.r(C)p.r(G)p.r(C)p.r(G)p.r(C)p.r(G)p.r(C)p.d(T)p.d(T)}|RNA2{r(G)p.r(C)p.r(G)p.r(C)p.r(G)p.r(C)p.r(G)p.r(G)p.r(C)p.r(G)p.r(C)p.r(C)p.r(U)p.r(C)p.r(A)p.r(C)p.r(C)p.r(A)p.r(C)p.d(C)p.d(G)}$$$RNA1{StrandType:ss}|RNA2{StrandType:as}$	65.2
RNA1{r(C)p.r(G)p.r(A)p.r(U)p.r(G)p.r(G)p.r(G)p.r(C)p.r(C)p.r(G)p.r(U)p.r(G)p.r(C)p.r(C)p.r(G)p.r(C)p.r(A)p.r(G)p.r(C)p.d(T)p.d(T)}|RNA2{r(G)p.r(C)p.r(U)p.r(G)p.r(C)p.r(G)p.r(G)p.r(C)p.r(A)p.r(C)p.r(G)p.r(G)p.r(C)p.r(C)p.r(C)p.r(A)p.r(U)p.r(C)p.r(G)p.d(G)p.d(T)}$$$RNA1{StrandType:ss}|RNA2{StrandType:as}$	51
RNA1{r(C)p.r(G)p.r(C)p.r(G)p.r(A)p.r(G)p.r(C)p.r(U)p.r(G)p.r(C)p.r(A)p.r(C)p.r(U)p.r(U)p.r(C)p.r(A)p.r(C)p.r(C)p.r(C)p.d(T)p.d(T)}|RNA2{r(G)p.r(G)p.r(G)p.r(U)p.r(G)p.r(A)p.r(A)p.r(G)p.r(U)p.r(G)p.r(C)p.r(A)p.r(G)p.r(C)p.r(U)p.r(C)p.r(G)p.r(C)p.r(G)p.d(G)p.d(C)}$$$RNA1{StrandType:ss}|RNA2{StrandType:as}$	54.8
RNA1{r(U)p.r(G)p.r(C)p.r(G)p.r(G)p.r(C)p.r(C)p.r(C)p.r(G)p.r(G)p.r(C)p.r(G)p.r(C)p.r(G)p.r(C)p.r(C)p.r(U)p.r(G)p.r(C)p.d(T)p.d(T)}|RNA2{r(G)p.r(C)p.r(A)p.r(G)p.r(G)p.r(C)p.r(G)p.r(C)p.r(G)p.r(C)p.r(C)p.r(G)p.r(G)p.r(G)p.r(C)p.r(C)p.r(G)p.r(C)p.r(A)p.d(C)p.d(T)}$$$RNA1{StrandType:ss}|RNA2{StrandType:as}$	52.1

What follows are substances tested against UBE2V1 (assay: reporter assay of Huesken 2005). Details: siRNA.

Substance	normalised inhibition (eCFP-eYFP dual reporter) [%]
sense rUrCrArUrArUrArGrCrArUrCrArArArGrUrUrGdTdT / antisense rCrArArCrUrUrUrGrArUrGrCrUrArUrArUrGrAdAdT	49
sense rArGrGrArGrUrArGrGrArGrArUrGrGrCrArCrAdTdT / antisense rUrGrUrGrCrCrArUrCrUrCrCrUrArCrUrCrCrUdTdT	92.3
sense rArGrGrArArGrArCrUrUrGrArArCrCrUrArGrAdTdT / antisense rUrCrUrArGrGrUrUrCrArArGrUrCrUrUrCrCrUdTdC	78
sense rArArGrArGrCrCrArUrArUrCrArGrUrGrCrUrAdTdT / antisense rUrArGrCrArCrUrGrArUrArUrGrGrCrUrCrUrUdGdG	84.4
sense rCrArGrArArUrUrCrArUrArUrArGrCrArUrCrAdTdT / antisense rUrGrArUrGrCrUrArUrArUrGrArArUrUrCrUrGdCdC	90
sense rCrUrArGrArArArArUrUrUrCrArCrUrGrCrArAdTdT / antisense rUrUrGrCrArGrUrGrArArArUrUrUrUrCrUrArGdGdT	96
sense rUrGrArGrUrGrArUrGrArArGrGrArArGrArCrUdTdT / antisense rArGrUrCrUrUrCrCrUrUrCrArUrCrArCrUrCrAdGdT	62.3
sense rUrGrGrGrGrUrCrUrArGrArArGrArUrGrArCrGdTdT / antisense rCrGrUrCrArUrCrUrUrCrUrArGrArCrCrCrCrAdGdC	38.8
sense rArGrArCrUrUrGrArArCrCrUrArGrArArArArUdTdT / antisense rArUrUrUrUrCrUrArGrGrUrUrCrArArGrUrCrUdTdC	71.4
sense rCrCrUrCrArGrCrCrGrCrCrCrGrArArGrGrArCdTdT / antisense rGrUrCrCrUrUrCrGrGrGrCrGrGrCrUrGrArGrGdGdA	55.2
sense rGrArArGrArUrGrArCrGrArArGrArCrArUrGrAdTdT / antisense rUrCrArUrGrUrCrUrUrCrGrUrCrArUrCrUrUrCdTdA	95
sense rArArUrArUrArCrArGrCrCrUrUrArArArArUrAdTdT / antisense rUrArUrUrUrUrArArGrGrCrUrGrUrArUrArUrUdCdG	82.9
sense rUrUrCrCrGrArCrUrGrUrUrGrGrArArGrArArCdTdT / antisense rGrUrUrCrUrUrCrCrArArCrArGrUrCrGrGrArAdAdT	52.3
sense rUrArUrArGrCrArUrCrArArArGrUrUrGrUrCrCdTdT / antisense rGrGrArCrArArCrUrUrUrGrArUrGrCrUrArUrAdTdG	47
sense rArGrUrUrCrUrArArUrGrGrArGrUrGrGrUrGrGdTdT / antisense rCrCrArCrCrArCrUrCrCrArUrUrArGrArArCrUdAdT	56.8
sense rUrCrGrGrCrGrCrCrUrArArUrGrArUrGrUrCrUdTdT / antisense rArGrArCrArUrCrArUrUrArGrGrCrGrCrCrGrAdAdG	78.8
sense rUrCrCrCrUrCrArGrCrCrGrCrCrCrGrArArGrGdTdT / antisense rCrCrUrUrCrGrGrGrCrGrGrCrUrGrArGrGrGrAdGdT	46.6
sense rArGrCrUrGrGrGrGrUrCrUrArGrArArGrArUrGdTdT / antisense rCrArUrCrUrUrCrUrArGrArCrCrCrCrArGrCrUdAdA	73
sense rCrArArGrArGrCrUrUrCrGrGrCrGrCrCrUrArAdTdT / antisense rUrUrArGrGrCrGrCrCrGrArArGrCrUrCrUrUrGdCdA	84.1
sense rGrArArArArUrUrUrCrArCrUrGrCrArArArGrGdTdT / antisense rCrCrUrUrUrGrCrArGrUrGrArArArUrUrUrUrCdTdA	83.7
sense rUrUrGrUrCrCrUrGrCrArArGrArGrCrUrUrCrGdTdT / antisense rCrGrArArGrCrUrCrUrUrGrCrArGrGrArCrArAdCdT	51.9
sense rGrGrArGrUrArArArArGrUrCrCrCrUrCrGrCrAdTdT / antisense rUrGrCrGrArGrGrGrArCrUrUrUrUrArCrUrCrCdTdT	88.7
sense rUrGrGrArArGrArArCrUrCrGrArArGrArArGrGdTdT / antisense rCrCrUrUrCrUrUrCrGrArGrUrUrCrUrUrCrCrAdAdC	59.9
sense rGrCrArGrArArUrUrCrArUrArUrArGrCrArUrCdTdT / antisense rGrArUrGrCrUrArUrArUrGrArArUrUrCrUrGrCdCdA	82
sense rGrCrCrUrArArUrGrArUrGrUrCrUrArArArGrAdTdT / antisense rUrCrUrUrUrArGrArCrArUrCrArUrUrArGrGrCdGdC	94.5
sense rUrArGrCrArArArArUrGrGrCrArGrArArUrUrCdTdT / antisense rGrArArUrUrCrUrGrCrCrArUrUrUrUrGrCrUrAdGdC	63
sense rUrUrArArArArUrArGrArArUrGrUrGrGrArCrCdTdT / antisense rGrGrUrCrCrArCrArUrUrCrUrArUrUrUrUrArAdGdG	38.8
sense rUrGrGrGrCrCrUrCrCrArArGrArArCrArArUrUdTdT / antisense rArArUrUrGrUrUrCrUrUrGrGrArGrGrCrCrCrAdAdT	57.1
sense rUrArCrArArGrArUrGrGrArCrArGrGrGrArUrGdTdT / antisense rCrArUrCrCrCrUrGrUrCrCrArUrCrUrUrGrUrAdAdG	52.7
